Results reported in patent US11376228B2 (Genifarm Laboratories Inc, priority 2018, dated 2022).
pIC50: −log10 of the molar value. Like-named read-outs stand apart in the source and are kept apart here.

How the values were obtained:
Assay type in all cases: cell-based
[1] = tested on: human lung cancer cells A549; assay: MTT assay, proliferation of human lung cancer cells A549; details: for inhibitory effects on human lung cancer cells A549 (in words): A549, summary of Table 3; for effect compared with control gossypol I-A9, A549: A549, versus gossypol I-A9; for pIC50: Homo sapiens, read-out: IC50 on the proliferation of human lung cancer cells A5499
Experimental: (§1) The original culture medium for human lung cancer cells A549 was removed, and human lung cancer cells A549 were rinsed with 2 mL of phosphate buffer saline (PBS), digested with 0.5 mL of pancreatic enzyme for 3 min. 2 mL of culture medium was added to the cells and the mixture was transferred to a centrifuge tube. The mixture was centrifuged (200 g) for 5 min. The supernatant was removed. 2 mL of culture medium was sprayed five times to the remaining solution. 0.5 mL of cell suspension was transferred to an Eppendorf (EP) tube and the cells were counted. The cells were cultured on a 96-well plate, each well having 2000 cells, 3 wells for each compound. The numbers of the required cells and wells and the amount of culture medium were calculated. The cells were diluted by the culture medium. 100 μL culture medium was added to each well and were evenly dispersed, each well containing 2000 cells. The cells were transferred to the wells using a pipette, and cultured in an incubator.
(§2) (2) Adding Compounds to Culture Medium
(§3) The original culture medium was discarded, and the mother liquor of each compound was diluted to final concentrations of 0, 5, 10, 20, 30, 60 and 80 μM, respectively. Each diluent was uniformized. To each head of a multichannel pipette, 100 μL of the diluent was introduced. Three heads were employed. The diluents were added to 3 marked wells (the cells were undamaged) of a tilted 96-well plate, respectively. Different concentrations of diluents were added to three different marked wells and evenly mixed by alternately sucking and blowing with the multichannel pipette 3 times. The 96-well plate was shaken slightly twice, and cultured in a CO2 incubator.
(§4) The cells were cultured in different compounds for 48 h and were then detected. Specifically, a clean bench was turned on for 15 min, and phosphate buffer saline (PBS) was pre-heated in a warm water bath for 15 min. MTT was taken out of a refrigerator at −20 degrees, protected from light and thawed (MTT stock solution was 5 mg/mL). MTT and a culture medium were mixed evenly in a V-shaped groove to yield a mixture comprising 500 μg/mL MTT and a culture medium (a volume ratio thereof being 1:10). 100 μL of the prepared MTT mixture was added to each well of the 96-well plate using the multichannel pipette, and then incubated at 37° C. for an appropriate time (1 h), thereby reducing the MTT to formazan (purple crystals formed in the cells under a microscope, which were different in medicated cells and unmedicated cells). The upper liquid was removed with a white pipette tip attached to a vacuum pump. For each concentration of the compounds, 3 pipette tips were employed. After the incubation, the MTT mixture was discarded, and then 100 μL of DMSO was added to each well using the multichannel pipette. The 96-well plate was shaken in a shaker for 10 min (until the purple crystals were dissolved in the cells under the microscope).
(§5) The absorbance value of the resulting solution was detected at a wavelength of 550 nm with a microplate reader. The survival rate of cells treated with different concentrations of drugs was calculated in accordance with the requirements to make a scatter plot. The IC50 results of each compound on the proliferation of human lung cancer cells A549 were shown in Table 3, where Gossypol I-A9 is a control sample.

[2] = tested on: human prostate cancer cells PC3; assay: MTT assay, proliferation of human prostate cancer cells PC3; details: for pIC50: Homo sapiens, 48 h, read-out: IC50 on the proliferation of human prostate cancer cells PC3; for inhibitory effects on human prostate cancer cells PC3 (in words): PC3, summary of Table 4; for effect compared with control gossypol I-A9, PC3: PC3, versus gossypol I-A9
[3] = tested on: human gastric cancer cells MKN45; assay: MTT assay, proliferation of human gastric cancer cells MKN45; details: for pIC50: Homo sapiens, read-out: IC50 on the proliferation of human gastric cancer cells MKN45; for inhibitory effects on human gastric cancer cells MKN45 (in words): MKN45, summary of Table 1
Experimental: as §1, with “gastric” for “lung”, “MKN45” for “A549”
as §2
as §3, with “15,” for “10, 20,”, “30, 45 and” for “30,”, “60” for “60 and 80”
as §4
The absorbance value of the cells was measured at a wavelength of 550 nm with a microplate reader. The survival rate of the cells treated with different concentrations of compounds was calculated to make a scatter plot. The IC50 results of each compound on the proliferation of human gastric cancer cells MKN45 were shown in Table 1, where Gossypol I-A9 is a control sample.

[4] = tested on: human ovarian cancer cells SKOV3; assay: MTT assay, proliferation of human ovarian cancer cells SKOV3; details: for pIC50: Homo sapiens, read-out: IC50 on the proliferation of human ovarian cancer cells SKOV3; for inhibitory effects on human ovarian cancer cells SKOV3 (in words): SKOV3, summary of Table 2; for effect compared with control gossypol I-A9, SKOV3: SKOV3, versus gossypol I-A9
Experimental: as §1, with “ovarian” for “lung”, “SKOV3” for “A549”
as §2
as §3, with “1, 2, 4, 8” for “5, 10, 20, 30, 60”, “16” for “80”
as §4
as §5, with “ovarian” for “lung”, “SKOV3” for “A549”, “2, wherein” for “3, where”

[5] = SK-OV-3, SKOV3, MTT, 48 h, 0-16 μM

Row | pIC50 ([1]; A549, MTT, 48 h, 0-80 μM) | pIC50 ([2]; PC3, MTT, 0-32 μM) | pIC50 [4, 5] | SMILES | inhibitory effects on human lung cancer cells A549 (in words) [1] | effect compared with control gossypol I-A9, A549 [1] | inhibitory effects on human prostate cancer cells PC3 (in words) [2] | effect compared with control gossypol I-A9, PC3 [2] | inhibitory effects on human ovarian cancer cells SKOV3 (in words) [4] | also measured
1 | 4.17 |  |  | Cc1c(O)c(O)c(C=O)c(COCc2ccccc2)c1-c1ccccc1C#N [Compound I-28] | inhibitory effects | slightly inferior to that of the Gossypol I-A9 |  |  |  | 
2 | 4.38 | 5.37 |  | COc1ccc(-c2c(C)c(O)c(O)c(C=O)c2COCc2ccccc2)cc1 [Compound I-29] | inhibitory effects | slightly inferior to that of the Gossypol I-A9 | significant inhibitory effects | superior than the gossypol I-A9 |  | 
3 | 4.58 | 5.18 |  | Cc1cc(C)cc(-c2c(C)c(O)c(O)c(C=O)c2COCc2ccccc2)c1 [Compound I-45] | inhibitory effects | slightly inferior to that of the Gossypol I-A9 | significant inhibitory effects | superior than the gossypol I-A9 |  | 
4 |  | 4.88 | 5.23 | COC(=O)c1ccc(-c2c(C)c(O)c(O)c(C=O)c2Cc2c(OC)cc(OC)cc2OC)cc1 [Compound I-49] |  |  | significant inhibitory effects |  | significant inhibitory effects | pIC50 ([3]; MKN-45, MKN45, MTT, 48 h, 0-60 μM): 5.51; inhibitory effects on human gastric cancer cells MKN45 (in words) [3]: significant inhibitory effects; effect compared with control gossypol I-A9, MKN45 ([3]; MKN45, versus gossypol I-A9): better than the control gossypol I-A9; effect compared with control gossypol I-A9, SKOV3 [4]: superior to that of the gossypol I-A9
5 |  |  | ≤ 4.46 | COc1cc(OC)c(Cc2cc(C)c(O)c(O)c2CO)c(OC)c1 [Compound I-97] |  |  |  |  |  | inhibitory effects on human gastric cancer cells MKN45 (in words) [3]: significant inhibitory effects

The next lines start with the molecule.

Row | SMILES | pIC50 ([1]; A549, MTT, 48 h, 0-80 μM) | pIC50 ([2]; PC3, MTT, 0-32 μM) | pIC50 [4, 5] | inhibitory effects on human lung cancer cells A549 (in words) [1] | effect compared with control gossypol I-A9, A549 [1] | inhibitory effects on human prostate cancer cells PC3 (in words) [2] | effect compared with control gossypol I-A9, PC3 [2] | inhibitory effects on human ovarian cancer cells SKOV3 (in words) [4] | also measured
6 | C#CCOCc1c(C=O)c(O)c(O)c(C)c1-c1ccccc1 [I-A2] |  | 5.30 | 4.94 |  |  | significant inhibitory effects | superior than the gossypol I-A9 | significant inhibitory effects | 
7 | COc1cccc2c(OC)c(Cc3cc(C)c(O)c(O)c3C=O)ccc12 [I-A3] |  | 5.18 | 5.19 |  |  | significant inhibitory effects | superior than the gossypol I-A9 | significant inhibitory effects | effect compared with control gossypol I-A9, SKOV3 [4]: superior to that of the gossypol I-A9
8 | Cc1cc(CSCc2ccccc2)c(C=O)c(O)c1O [I-A4] | 4.23 |  |  | inhibitory effects | slightly inferior to that of the Gossypol I-A9 |  |  |  | 
9 | COc1cc(OC)c(Cc2c(C#Cc3ccccc3)c(C)c(O)c(O)c2C=O)c(OC)c1 [I-A5] |  | 5.38 | 5.01 |  |  | significant inhibitory effects | superior than the gossypol I-A9 | significant inhibitory effects | 
10 | Cc1cc2c(C(C)C)c(O)c(O)c(C=O)c2c(O)c1-c1c(C)cc2c(C(C)C)c(O)c(O)c(C=O)c2c1O [I-A9, gossypol, reference compound] |  |  |  |  |  |  |  |  | pIC50 ([3]; MKN-45, 48 h): 4.81; pIC50 ([4]; SK-OV-3, 48 h): 5.02; pIC50 ([1]; A549, 48 h): 4.74; pIC50 [2]: 5.00
